Key:
[1] = target: human CARM1 (PRMT4) (Homo sapiens (Human), UniProt Q86X55); assay: CARM1 enzyme assay on peptide substrate (3H-SAM Flashplate); conditions: Biochemical potencies, read-out: Biochem IC50
From the text: S-adenosylmethionine (SAM), S-adenosylhomocysteine (SAH), bicine, Tween20, dimethylsulfoxide (DMSO), bovine skin gelatin (BSG), sodium butyrate and Tris(2-carboxyethyl)phosphine hydrochloride solution (TCEP) were purchased from Sigma-Aldrich at the highest level of purity possible. ^3H-SAM was purchase from American Radiolabeled Chemicals with a specific activity of 80 Ci/mmol. 384-well streptavidin Flashplates were purchased from PerkinElmer.
Peptide representative of human histone H3 residues 16-30 was synthesized with an N-terminal linker-affinity tag motif and a C-terminal amide cap by 21st Century Biochemicals. […] The sequence was Biot-Ahx-[…]-amide and contained a monomethylated arginine at position 26 (SEQ ID NO.:1).
The gene sequence encoding isoform 1 containing a deletion of amino acids 539-561 was amplified subsequently and subcloned into pFastBacMam (Viva Biotech).
Recombinant baculovirus were generated according to Bac-to-Bac kit instructions (Life Technologies). Protein over-expression was accomplished by infecting exponentially growing HEK 293F cell culture at 1.3×10^6 cell/ml with virus (MOI=10) in the presence of 8 mM sodium butyrate. Infections were carried out at 37° C. for 48 hours, harvested by centrifugation, and stored at −80° C. for purification.
Expressed full-length human Flag- and His-tagged CARM1 protein was purified from cell paste by anti-flag M2 affinity chromatography with resin equilibrated with buffer containing 20 mM Tris, 150 mM NaC, 5% glycerol, pH 7.8. Column was washed with 500 mM NaCl in buffer A and Flag-CARM1-His was eluted with 200 ug/ml FLAG peptide in buffer A. Pooled fractions were dialyzed in 20 mM Tris, 150 mM NaCl, 5% glycerol and 1 mM DTT, pH 7.8.
The assays were all performed in a buffer consisting of 20 mM Bicine (pH=7.6), 1 mM TCEP, 0.005% BSG, and 0.002% Tween 20, prepared on the day of use. Compounds in 100% DMSO (1 ul) were spotted into a polypropylene 384-well V-bottom plates (Greiner) using a Platemate Plus outfitted with a 384-channel head (Thermo Scientific). DMSO (1 ul) was added to Columns 11, 12, 23, 24, rows A-H for the maximum signal control and 1 ul of SAH, a known product and inhibitor of CARM1, was added to columns 11, 12, 23, 24, rows I-P for the minimum signal control. A cocktail (40 ul) containing the CARM1 enzyme was added by Multidrop Combi (Thermo-Fisher). The compounds were allowed to incubate with CARM1 for 30 min at room temperature, then a cocktail (10 ul) containing ^3H-SAM and peptide was added to initiate the reaction (final volume=51 ul). The final concentrations of the components were as follows: CARM1 was 0.25 nM, ^3H-SAM was 30 nM, peptide was 250 nM, SAH in the minimum signal control wells was 1 mM, and the DMSO concentration was 2%. The assays were stopped by the addition of non-radiolabeled SAM (10 ul) to a final concentration of 300 uM, which dilutes the ^3H-SAM to a level where its incorporation into the peptide substrate is no longer detectable. 50 ul of the reaction in the 384-well polypropylene plate was then transferred to a 384-well Flashplate and the biotinylated peptides were allowed to bind to the streptavidin surface for at least 1 hour before being washed once with 0.1% Tween20 in a Biotek ELx405 plate washer. The plates were then read in a PerkinElmer TopCount plate reader to measure the quantity of ^3H-labeled peptide bound to the Flashplate surface, measured as disintegrations per minute (dpm) or alternatively, referred to as counts per minute (cpm).
The Hill Coefficient normally allowed to float but may also be fixed at 1 in a 3-parameter fit.

[2] = tested on: asymmetric di-methyl PABP1 in RKO cells; assay: RKO methylation assay, In Cell Western (ICW) for asymmetric di-methyl PABP1; format: cell-based; conditions: Homo sapiens, RKO, Cellular potencies, ICW PABP1me2a
Summary of the method: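 RKO cells treated with compound for 48 h at 37 °C, then fixed, permeabilized and immunostained for asymmetric di-methyl PABP1, with DRAQ5 as DNA stain. Infrared 700/800 nm signal ratio normalized to DMSO and 20 μM reference-compound controls; IC50 from triplicate wells.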

human CARM1 (PRMT4), sequence (Q86X55 other isoform, or with tags, fused parts or gaps isoform Q86X55-1): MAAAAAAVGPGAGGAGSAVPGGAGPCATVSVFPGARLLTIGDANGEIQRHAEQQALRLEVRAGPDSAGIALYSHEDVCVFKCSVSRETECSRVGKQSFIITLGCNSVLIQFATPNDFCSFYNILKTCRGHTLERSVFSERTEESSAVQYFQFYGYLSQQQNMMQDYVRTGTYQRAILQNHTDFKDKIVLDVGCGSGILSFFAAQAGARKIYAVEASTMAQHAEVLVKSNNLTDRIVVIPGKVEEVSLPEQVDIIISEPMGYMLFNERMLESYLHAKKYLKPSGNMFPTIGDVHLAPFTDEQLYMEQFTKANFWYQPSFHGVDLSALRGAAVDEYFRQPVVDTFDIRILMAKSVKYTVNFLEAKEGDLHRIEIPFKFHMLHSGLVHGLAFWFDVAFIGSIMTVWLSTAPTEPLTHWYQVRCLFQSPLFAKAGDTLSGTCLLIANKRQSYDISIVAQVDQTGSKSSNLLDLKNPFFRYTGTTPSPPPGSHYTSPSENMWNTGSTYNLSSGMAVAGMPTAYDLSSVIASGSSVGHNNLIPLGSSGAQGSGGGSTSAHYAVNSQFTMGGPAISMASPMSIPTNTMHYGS

## CNCC(O)COc1cccc(-c2nccc(-c3c(C)noc3C)n2)c1 (stereo not drawn) [Example 2-1a]
[1]
  IC50: 100 to 1000 nM
[2]
  IC50: 10000 to 20000 nM

## CNCC(O)COc1cccc(-c2nc(NC3COC3)cc(-c3c(C)noc3C)n2)c1 (stereo not drawn) [Example 22-1a]
[1]
  IC50: 100 to 1000 nM
[2]
  IC50: 10000 to 20000 nM

## CNCC(O)COc1cccc(-c2nc(NC3CCOC3)c(C)c(C(=O)NC)n2)c1 (stereo not drawn) [Example 384-1a]
[1]
  IC50: 100 to 1000 nM
[2]
  IC50: 10000 to 20000 nM

## CNCC(O)COc1cccc(-c2nc(N[C@@H]3CCOC3)c(C)c(C(=O)N(C)CC3CCOCC3)n2)c1 (stereo partly drawn) [Example 364-1a]
[1]
  IC50: 100 to 1000 nM
[2]
  IC50: 10000 to 20000 nM

## CNCC(O)COc1cc(OC)cc(-c2nc(NC3CCOC3)c(C)c(N3CCN(C(C)=O)[C@@H](C)C3)n2)c1 (stereo partly drawn) [Example 432-1a]
[1]
  IC50: 100 to 1000 nM
[2]
  IC50: 10000 to 20000 nM

## CNCC(O)COc1cccc(-c2nc(N(C)c3cnc(C)nc3)cc(N(C)C3CCOCC3)n2)c1 (stereo not drawn) [Example 588-1a]
[1]
  IC50: 100 to 1000 nM
[2]
  IC50: 10000 to 20000 nM

## CNCC(O)COc1cccc(-c2nc(N3C[C@@H]4CCCN(C(C)=O)[C@@H]4C3)cc(N(C)C3CCOCC3)n2)c1 (stereo partly drawn) [Example 539-1a]
[1]
  IC50: 100 to 1000 nM
[2]
  IC50: 10000 to 20000 nM

## CCc1c(N[C@@H]2CCOC2)nc(-c2cccc(OCC(O)CNC)c2)nc1N1CCOCC1 (stereo partly drawn) [Example 404-1a]
[1]
  IC50: 100 to 1000 nM
[2]
  IC50: 10000 to 20000 nM

## CNCC(O)COc1cccc(-c2nc(NC3CCOC3)c(C)c(N3CCNC(C(F)(F)F)C3)n2)c1 (stereo not drawn) [Example 419-1a]
[1]
  IC50: 100 to 1000 nM
[2]
  IC50: 10000 to 20000 nM

## CNCC(O)COc1cccc(-c2nc(C(=O)NC)cc(N(C)C3CCOCC3)n2)c1 (stereo not drawn) [Example 554-1a]
[1]
  IC50: 100 to 1000 nM
[2]
  IC50: 10000 to 20000 nM

## CNCC(O)COc1cccc(-c2nc(NC3CCOC3)c(C)c(N3CCC4(CCCO4)CC3)n2)c1 (stereo not drawn) [Example 420-1a]
[1]
  IC50: 100 to 1000 nM
[2]
  IC50: 5000 to 10000 nM

## CNCC(O)COc1cc(-c2nc(NC3CCOC(C)C3)c(C)c(-c3c(C)noc3C)n2)ccc1F (stereo not drawn) [Example 51-3]
[1]
  IC50: 100 to 1000 nM
[2]
  IC50: ≥ 20000 nM

## CNCC(O)COc1cccc(-c2nc(-c3ccnc(C(=O)N(C)C)c3)cc(N(C)C3CCOCC3)n2)c1 (stereo not drawn) [Example 535-1a]
[1]
  IC50: 100 to 1000 nM
[2]
  IC50: 5000 to 10000 nM

## CNCC(O)COc1cccc(-c2nc(NCCCN3CCCC3=O)cc(-c3cc4ccccc4o3)n2)c1 (stereo not drawn) [Example 649-1a]
[1]
  IC50: 100 to 1000 nM
[2]
  IC50: ≥ 20000 nM

## CNCC(O)COc1cccc(-c2nc(N3CCN(CC(F)F)[C@@H](C)C3)cc(N(C)C3CCOCC3)n2)c1 (stereo partly drawn) [Example 595-1a]
[1]
  IC50: 100 to 1000 nM
[2]
  IC50: 10000 to 20000 nM

## CNCC(O)COc1ccc(C#N)c(-c2nc(NC3CCN(C(=O)OC)CC3)c(C)c(-c3c(C)noc3C)n2)c1 (stereo not drawn) [Example 165-3]
[1]
  IC50: 100 to 1000 nM
[2]
  IC50: ≥ 20000 nM

## CNCC(O)COc1cccc(-c2nc(NC3CCCC3)c(C)c(N3CCOCC3)n2)c1 (stereo not drawn) [Example 683-1a]
[1]
  IC50: 100 to 1000 nM
[2]
  IC50: ≥ 20000 nM

## CNC[C@@H](O)COc1ccc(Cl)c(-c2nc(-c3c(C)noc3C)c(C)c(C3(C)CC3)n2)c1 [Example 262-3]
[1]
  IC50: 100 to 1000 nM
[2]
  IC50: ≥ 20000 nM

## CNCC(O)COc1cccc(-c2nc(NC3CCOCC3)c(C)c(N3CCNC(C)(C)C3)n2)c1 (stereo not drawn) [Example 664-1a]
[1]
  IC50: 100 to 1000 nM
[2]
  IC50: ≥ 20000 nM

## CNCC(O)COc1cccc(-c2nc(C(=O)NCC3CCOCC3)cc(-c3c(C)noc3C)n2)c1 (stereo not drawn) [Example 65-1a]
[1]
  IC50: 100 to 1000 nM
[2]
  IC50: 10000 to 20000 nM

## CNCC(O)COc1cccc(-c2nc(NC3CCOC3)c(C)c(N3CCC4(CCO4)CC3)n2)c1 (stereo not drawn) [Example 400-1a]
[1]
  IC50: 100 to 1000 nM
[2]
  IC50: 5000 to 10000 nM

## CNCC(O)COc1cccc(-c2nc(N[C@H]3CCOC3)c(C)c(C3CCOCC3)n2)c1 (stereo partly drawn) [Example 347-1a]
[1]
  IC50: 100 to 1000 nM
[2]
  IC50: 10000 to 20000 nM

## CNC[C@@H](O)COc1cccc(-c2nc(N[C@@H]3CCOC3)c(C)c(-c3cn(S(C)(=O)=O)c4ncncc34)n2)c1 [Example 453-1a]
[1]
  IC50: 100 to 1000 nM
[2]
  IC50: 5000 to 10000 nM

## CNCC(O)COc1cccc(-c2nc(-c3cccc(C#N)c3)cc(N(CCOC)CCOC)n2)c1 (stereo not drawn) [Example 629-1a]
[1]
  IC50: 100 to 1000 nM
[2]
  IC50: ≥ 20000 nM

## CNCC(O)COc1cccc(-c2nc(-c3cccc4ncccc34)cc(N(CCOC)CCOC)n2)c1 (stereo not drawn) [Example 639-1a]
[1]
  IC50: 100 to 1000 nM
[2]
  IC50: ≥ 20000 nM

## CNCC(O)COc1cccc(-c2nc(NCCOC)cc(-c3ccnc(OC)c3)n2)c1 (stereo not drawn) [Example 638-1a]
[1]
  IC50: 100 to 1000 nM
[2]
  IC50: ≥ 20000 nM

## CNCC(O)COc1cccc(-c2nc(NCCCN3CCCCCC3=O)cc(N3CCOCC3)n2)c1 (stereo not drawn) [Example 685-1a]
[1]
  IC50: 1000 to 3000 nM
[2]
  IC50: ≥ 20000 nM

## CNCC(O)COc1cccc(-c2nc(N[C@@H]3CCOC3)c(C)c(N(C)Cc3ccccn3)n2)c1 (stereo partly drawn) [Example 393-1a]
[1]
  IC50: 100 to 1000 nM
[2]
  IC50: 10000 to 20000 nM

## CNCC(O)COc1cccc(-c2nc(N(C)C3CCOCC3)cc(N3CCN(C(C)=O)CC34CC4)n2)c1 (stereo not drawn) [Example 552-1a]
[1]
  IC50: 100 to 1000 nM
[2]
  IC50: 10000 to 20000 nM

## CNCC(O)COc1cccc(-c2nc(NC3CCOC(C)C3)c(C)c(-c3c(C)noc3C)n2)c1Cl (stereo not drawn) [Example 80-3]
[1]
  IC50: 100 to 1000 nM
[2]
  IC50: ≥ 20000 nM

## CNCC(O)COc1cccc(-c2nc(NCC(F)(F)F)cc(-c3cncnc3)n2)c1 (stereo not drawn) [Example 626-1a]
[1]
  IC50: 1000 to 3000 nM
[2]
  IC50: ≥ 20000 nM

## CNCC(O)COc1cccc(-c2nc(NC3CCOCC3)cc(N(C3CCOCC3)C3CC3)n2)c1 (stereo not drawn) [Example 605-1a]
[1]
  IC50: 1000 to 3000 nM
[2]
  IC50: 10000 to 20000 nM

## CNCC(O)COc1cccc(-c2nc(N[C@@H]3CCOC3)c(C)c(N3CCn4c(nnc4C(F)(F)F)C3)n2)c1 (stereo partly drawn) [Example 365-1a]
[1]
  IC50: 100 to 1000 nM
[2]
  IC50: 10000 to 20000 nM

## CNCC(O)COc1cccc(-c2nc(NC3CCOCC3)c(C)c(-c3c(C)n[nH]c3C)n2)c1 (stereo not drawn) [Example 661-1a]
[1]
  IC50: 100 to 1000 nM
[2]
  IC50: ≥ 20000 nM

## CNCC(O)COc1cccc(-c2nc(NC(C)C3CCOCC3)cc(-c3c(C)noc3C)n2)c1 (stereo not drawn) [Example 158-1a]
[1]
  IC50: 100 to 1000 nM
[2]
  IC50: 5000 to 10000 nM

## CNCC(O)COc1cccc(-c2nc(N[C@H]3CCOC3)c(C)c(-c3ccncc3)n2)c1 (stereo partly drawn) [Example 333-1a]
[1]
  IC50: 100 to 1000 nM
[2]
  IC50: 10000 to 20000 nM

## CNCC(O)COc1cccc(-c2nc(-c3ncc[nH]3)cc(N(C)C3CCOCC3)n2)c1 (stereo not drawn) [Example 550-1a]
[1]
  IC50: 100 to 1000 nM
[2]
  IC50: 10000 to 20000 nM

## CNCC(O)COc1cccc(-c2nc(N[C@@H]3CCOC3)c(C)c(C(=O)N3CCOCC3)n2)c1 (stereo partly drawn) [Example 403-1a]
[1]
  IC50: 3000 to 10000 nM
[2]
  IC50: 10000 to 20000 nM

## CNCC(O)COc1cccc(-c2nc(C(=O)NC3CCOCC3)cc(-c3c(C)noc3C)n2)c1 (stereo not drawn) [Example 52-1a]
[1]
  IC50: 100 to 1000 nM
[2]
  IC50: 10000 to 20000 nM

From patent US10633389B2, “CARM1 inhibitors and uses thereof” (Epizyme, Inc., priority 2013, dated 2020)
